In patent US6599931B1, “Test system for characterizing the compatibility of bioactive substances and polyvinylpyrrolidone” (Abbott GmbH & Co. KG, priority 1998, dated 2003):

Columns and labels:
[1] = Melt extrudate with PVP K 30: formation of solid solution; format: physicochemical; conditions: for Extrudate: solution (solid): 30% by weight in PVP, melt extrudate with PVP K 30; for solid solution with PVP: comparison
[2] = Dissolving and recrystallization behavior of active ingredient in 1,3-bis(1-pyrrolidonyl)butane (DHVP) test system; conditions: for RT: solution in DHVP: room temperature; for Sol. at (temperature at which solution forms): heated; for solubility in DHVP: comparison
From the text: The ratios of the amounts can in principle be chosen without restriction and naturally depend essentially on the properties of the active ingredient. However, it is advisable to choose the concentration ranges in the test system so that they correspond to active ingredient contents typical of extruded forms, that is to say generally from 0.1 to 70, preferably 10 to 30% by weight of active ingredient, based on the total weight of the test system. However, it is also possible in the individual case to prepare solutions or dispersions with a concentration of 60% by weight or even higher. It is preferred to carry out test series with increasing active ingredient contents. The active ingredient(s) are weighed out, mixed with the appropriate amounts of DHVP and preferably stirred, normally with a typical laboratory magnetic stirrer at 5 to 200 rpm. […] The heating is preferably carried out so as to correspond approximately to the heating rate in a subsequent melt formulation, that is to say at 0.5 to 5° C./min. The test system is preferably heated to a maximum of 140° C. However, it is also possible in the individual case to heat to the boiling point of DHVP. The test system is then allowed to cool to room temperature.
The prepared test systems are assessed spectroscopically. […] The recrystallization behavior is also assessed. The recrystallization behavior immediately after cooling to room temperature is an important criterion especially for test systems in which the active ingredient has been induced to dissolve by heating.
leaving to stand at room temperature for 24 hours
Investigation is always of whether the active ingredient has recrystallized out of the solution.

[3] = Solubility in DMSO (comparison)

Extrudate: solution (solid) [1]	Recryst. (recrystallization) ([2]; 10% by weight in DHVP)	RT: solution in DHVP ([2]; 10% by weight in DHVP)	Recryst. after (time to recrystallization) ([2]; 30% by weight in DHVP)	Sol. at (temperature at which solution forms) ([2]; 30% by weight in DHVP)	RT: solution in DHVP ([2]; 30% by weight in DHVP)	Sol. at (temperature at which solution forms) ([2]; 10% by weight in DHVP)	Recryst. (recrystallization) ([2]; 30% by weight in DHVP)	Compound	solubility in DMSO (dimethyl sulfoxide) [3]	solid solution with PVP [1]	solubility in DHVP [2]
+	Recryst.: −	RT: +	20 h	Sol. at 70 °C	RT: −			CCS(=O)(=O)Oc1ccc2c(C)c(C)c(=O)oc2c1 [Esuprone]			
+	Recryst.: −	RT: +	40 h	Sol. at 70 °C	RT: −			CN(C)CCOC1=Cc2ccccc2Sc2ccc(Cl)cc21 [Zotepine]			

Further lines, the molecule ahead of its results:

Compound	Extrudate: solution (solid) [1]	Recryst. (recrystallization) ([2]; 10% by weight in DHVP)	RT: solution in DHVP ([2]; 10% by weight in DHVP)	Recryst. after (time to recrystallization) ([2]; 30% by weight in DHVP)	Sol. at (temperature at which solution forms) ([2]; 30% by weight in DHVP)	RT: solution in DHVP ([2]; 30% by weight in DHVP)	Sol. at (temperature at which solution forms) ([2]; 10% by weight in DHVP)	Recryst. (recrystallization) ([2]; 30% by weight in DHVP)	solubility in DMSO (dimethyl sulfoxide) [3]	solid solution with PVP [1]	solubility in DHVP [2]
COc1ccc(CCN(C)CCCC(C#N)(c2cc(OC)c(OC)c(OC)c2)C(C)C)cc1OC.Cl (stereo not shown) [Gallopamil HCl]	+	Recryst.: −	RT: +	96 h	Sol. at 60 °C	RT: −	Sol. at 60 °C				
CC(C)Cc1ccc(C(C)C(=O)O)cc1 (stereo not shown) [Ibuprofen]	+	Recryst.: −	RT: +			RT: +		Recryst.: −	soluble	solid solution	soluble
CC(=O)Nc1ccc(O)cc1 [Paracetamol]	+	Recryst.: −	RT: −		Sol. at 90 °C	RT: −	Sol. at 90 °C	Recryst.: −			
Cn1c(=O)c2[nH]cnc2n(C)c1=O [Theophylline]									soluble	no solid solution	insoluble
